“Also recorded” adds a separate entry of the source.
Columns and labels:
[1] = system: human respiratory epithelial cells; experiment: In vitro cold storage and reperfusion injury model, epithelial cells; assay type: cell-based
[2] = system: mouse cardiac endothelial cells; experiment: In vitro cold storage and reperfusion injury model, endothelial cells; assay type: cell-based; details: for IL-8 secretion, endothelial cells (Elisa): UW solution supplemented with ACT1 peptide
Description: These studies were conducted using a modification of the in vitro donor cold storage and reperfusion injury model (Casiraghi et al., 2009). Human umbilical vein endothelial cells (HUVECs) and mouse microvascular endothelial cells were grown to confluence on transwells and transendothelial resistance (TEER) was recorded. To model cold ischemia and reperfusion injury growth, media was removed from the cells and replaced with either ice cold UW solution or UW solution containing ACT1 peptide, and cultures were exposed to 6 h of hypoxia in a hypoxic chamber (Billups-Rothenberg, Del Mar, Calif.) at 4° C. Following hypoxic exposure, UW solution was removed, and to stimulate reperfusion, UW solution was replaced with fresh pre-warmed (37° C.) culture media, and cells were monitored for 24 h. TEER was measured at three time points post reperfusion as a marker of endothelial/epithelial cell death and dysfunction. A loss of […], as measured by TEER, across the cellular monolayer is associated with a loss of cell-cell communication (thus, gap junction and tight junction injury), cell injury, and a leaky endothelial cell lining. In vivo, this would translate as dysfunction of the cell layer and facilitate uncontrolled fluid trafficking, loss of vascular tone, reduced barrier function that would facilitate immune cell infiltration.

ARPE-19 cells = experiment: VEGF-induced deterioration of trans-epithelial resistance (TER) in ARPE19 monolayers; assay type: cell-based, human; details: ARPE19 monolayers pre-treated with the ACT peptide
From the text: Thus, while not wishing to be bound by theory, stabilizing the tight junction proteins with the ACT peptide can prevent loss of tight-junction disintegration and thus damage to RPE/Bruch's membrane.

HUVECs [3] = experiment: HUVEC H2O2 oxidative injury model; assay type: cell-based, human; details: 200 nM H2O2, ±ACT1 peptide
Description: (§1) HUVECs were exposed to two experimental conditions to model organ cold storage and reperfusion injuries. Cells were either (A) exposed to 200 nM H2O2 to induce oxidative injury, or (B) exposed to 6 h of cold preservation in UW at 4° C. in hypoxic conditions in the presence or absence of 100 μM ACT1 peptide, followed by 48 h of reperfusion in normal media.
(§2) HUVECs were exposed to either 18 h of cold storage in UW solution or UW/ACT1 followed by 48 h of reperfusion to model IRI in vitro, as previously described (Atkinson et al., 2013), or H2O2±ACT1 peptide to model oxidative stress. Efficacy was determined by TEER and IL-8 release.

[4] = system: Balb/c donor hearts implanted into B6 recipients; experiment: Mouse heterotopic heart allotransplantation model, 48 h post transplantation; assay type: in vivo
Description: Heart allograft transplants were performed between Balb/c donors to B6 recipients. Balb/c donor hearts were removed, perfused with UW solution and then static cold stored in either UW solution alone or UW solution supplemented with 100 μM ACT1 peptide for 6 h at 4° C. Following storage, hearts were implanted into B6 recipients using an abdominal heart transplant procedure.
Heterotopic abdominal heart transplants were performed between Balb/c and C57Bl/6 mice, as previously described (Gao et al., 2014). Donor hearts were cold preserved in UW or UW/ACT1 ([…]) for 6 h at 4° C. Following storage, hearts were then implanted and harvested at 48 h post transplantation to access the impact of ACT1 peptide post-treatment on IRI. Post transplant injury was assessed by analyses of serum Cardiac Troponin I and histological scoring of cardiac graft injury (FIG. 9) and inflammation; neutrophil and macrophage infiltration (FIG. 10), and pro-inflammatory cytokine.

mouse tracheas = experiment: Mouse trachea cold storage histology; details: 6 h at 4° C. in PBS+ACT1 peptide vs PBS
HUVECs [5] = experiment: HUVEC cold preservation, hypoxia and reperfusion model; assay type: cell-based, human; details: 48 h reperfusion
Description: as §1, §2

porcine kidney = experiment: Porcine kidney model of cold ischemia (Cx43, nitrotyrosine, apoptosis staining); set-up: species or system pig
Description: These studies were conducted using kidneys procured from 2 standard criteria donor pigs. The organs were flushed via the aorta with preservation solution after 10 minutes of warm ischemia post-mortem. Biopsies were taken prior to treatment. The kidneys were then flushed with either cold Belzer's solution (control) or the same solution containing 100 μm ACT1 peptide, and stored in the respective solutions on ice for 24 h. Biopsies were taken at regular intervals and sections were stained for Cx43 and nitrotyrosine.

[6] = mouse, in vivo
Description: Three CD1 mice were anesthetized by IP injection of 0.2 mL Salazine/ketamine. 10 μL of 1 mM ACT1 peptide dissolved in a solution containing normal saline and 0.05% Brij-78 was gently dripped onto the corneal surface of both eyes and allowed to permeate for 20 or 40 min. 0.05% Brij-78 in normal saline was used on a control mouse. The mice were sacrificed in a CO2 chamber and cervically dislocated at 20, 40 min (the control mouse sacrificed at 20 min). The eyes were removed and rinsed in PBS. A small incision was made in the anterior chamber and the aqueous humor (˜10 μL) was transferred to tube and flash frozen in a dry ice ethanol bath. The total sample was dissolved in 2× samples loading buffer and loaded on a 10-20% Tris-Tricine gel. Gel was transferred to a PDVF membrane and stained using RBT Sigma anti-CX43 CT antibody (1:10000) and a goat anti-RBT AP secondary (1:15000) to reveal the ACT1 band at <10 kDa.

[7] = UW solution with 100 μM ACT1, 6 h hypoxia at 4° C., 4, 8 and 24 h post reperfusion, listed as ACT1 peptide
[8] = UW + 100 μM ACT1, 6 h at 4° C., 48 h post transplantation, n=6, listed as ACT1 peptide
[9] = UW/ACT1 (1000 μM) 6 h at 4° C., 48 h, n=3-6

Sequence: RQPKIWFPNRRKPWKKRPRPDDLEI [ACT1]
- IL-8 secretion, epithelial cells ([1]; UW solution supplemented with ACT1 peptide): significant reduction in IL-8 secretion
- TEER / cellular injury, epithelial cells [1, 7]: significantly elevated TEER readings; also recorded: significantly reduced cellular injury
- IL-8 secretion, endothelial cells (Elisa) [2]: significantly reduced pro-inflammatory cytokine (IL-8) release
- IL-8 secretion, endothelial cells (Elisa) ([2]; listed as ACT1 peptide): significant reduction in IL-8 secretion
- TEER / cellular injury, endothelial cells [2, 7]: significantly elevated TEER readings; also recorded: significantly reduced cellular injury
- VEGF-induced deterioration of TER (ARPE-19 cells): prevents VEGF-induced deterioration of TER
- Trans-endothelial resistance after H2O2 oxidative injury (HUVECs [3]): significantly protects endothelial cells from H2O2 to induce oxidative stress
- Histological injury score (FIG. 6A) [4, 8]: significantly reduced cardiac injury
- neutrophil infiltration (FIG. 6C) [4, 8]: significantly reduced neutrophil
- serum cardiac troponin I levels (FIG. 6B) [4, 8]: reduced serum cardiac troponin I; also recorded: significantly reduced
- macrophage (Mac-3) infiltration, immunohistochemistry (FIG. 10B) [4, 9]: significantly reduces post transplant innate immune cell infiltration
- neutrophil (Gr-1) infiltration, immunohistochemistry (FIG. 10A) [4, 9]: significantly reduces post transplant innate immune cell infiltration
- serum concentration of Cardiac troponin I (FIG. 9B) ([4]; UW/ACT1 (1000 μM) 6 h at 4° C., 48 h post transplantation, n=3-6): significantly reduces post transplantation IRI injury
- post transplantation IRI injury, histological grading (FIG. 9A) ([4]; UW/ACT1 (1000 μM) 6 h at 4° C., 48 h post transplantation, n=3-6, listed as ACT1 peptide): significantly reduces ischemic reperfusion induced graft injury and inflammation; also recorded: significantly reduces post transplantation IRI injury
- trachea histology (mouse tracheas): preserved trachea histology
- Trans-endothelial resistance after cold preservation, hypoxia and reperfusion (HUVECs [5]; 6 h cold preservation in UW at 4° C., hypoxic, 100 μM ACT1): significantly protects endothelial cells from H2O2 to induce oxidative stress, and cold preservation, hypoxic reperfusion injury
- IL-8 secretion after cold preservation, hypoxia and reperfusion (HUVECs [5]; UW ± 100 μM ACT1): rendered less pro-inflammatory as compared to untreated cells
- apoptosis (TUNEL and caspase) (porcine kidney; 100 μM ACT1, cold ischemia 24 h): minimizes mitochondrial oxidant production (nitrotyrosine) and apoptosis (TUNEL and caspase)
- Cx43 staining (gap junctions) (porcine kidney; 100 μM ACT1 in cold Belzer's solution, up to 24 h cold ischemia, listed as ACT1 peptide): stabilizes gap junctions (Cx43); also recorded: Punctate Cx43 staining in the membrane (gap junctions) were preserved
- ACT1 in fluid from the posterior chamber (vitreous humor), Western blot [6]: Lower levels of ACT1 could also be detected

From patent publication US9844214B2, “Alpha connexin C-terminal (ACT) peptides for use in transplant” (MUSC Foundation for Research Development, priority 2004, dated 2017)
